Assay results published in ChEMBL document CHEMBL1201862, “PubChem BioAssay data set” (2004).
The source made the active and inactive calls.

Legend:
[1] = Artemis endonuclease inhibitor potency, dose response, biochemical, fluorescence intensity (AID 720701); type: functional;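 further: Artemis endonuclease enzyme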
[2] = cytotoxicity in HPDE-C7 cells, cell-based, fluorescence, HTS (AID 430); type: functional; details: Homo sapiens
[3] = cytotoxicity in KRAS-transformed pancreatic duct cells, primary screen, cell-based, fluorescence, HTS (AID 431); type: functional; details: Homo sapiens;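 further: cell line used: HPDE-C7K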
[4] = biological target: RNA-editing ligase 1, mitochondrial (Trypanosoma brucei brucei, UniProt P86926); test: TbREL1 ligase inhibitors, dose response, biochemical, fluorescence, Trypanosoma brucei (AID 1117295); type: functional
Chain of RNA-editing ligase 1, mitochondrial (P86926 whole entry): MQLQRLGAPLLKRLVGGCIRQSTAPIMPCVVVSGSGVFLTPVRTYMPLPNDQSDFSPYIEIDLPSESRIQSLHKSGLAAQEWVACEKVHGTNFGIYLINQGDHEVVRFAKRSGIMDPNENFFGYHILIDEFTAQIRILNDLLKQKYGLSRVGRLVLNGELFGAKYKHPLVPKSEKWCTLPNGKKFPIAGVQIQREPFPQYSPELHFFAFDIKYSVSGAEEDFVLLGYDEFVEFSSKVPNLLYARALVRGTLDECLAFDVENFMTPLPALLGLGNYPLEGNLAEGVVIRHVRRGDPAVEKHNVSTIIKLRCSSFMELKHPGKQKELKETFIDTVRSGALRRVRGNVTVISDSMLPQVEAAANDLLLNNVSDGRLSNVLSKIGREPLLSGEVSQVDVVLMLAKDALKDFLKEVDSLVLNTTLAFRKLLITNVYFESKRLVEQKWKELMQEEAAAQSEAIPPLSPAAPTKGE

[5] = inhibitors of intracellular T. cruzi replication, confirmation, NIH3T3 host cells, beta-gal luminescence (AID 2044); type: functional, cell-based;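 further: intracellular parasites grown in NIH/3T3 mouse fibroblasts as host cells; luminescent beta-galactosidase reporter signal from transgenic T. cruzi replicating inside host cells; inhibitors lower the luminescence signal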
[6] = cytotoxicity toward NIH3T3 fibroblasts, dose response, counter-screen, cell-based, ATP luminescence, mouse fibroblasts (AID 2010); type: functional;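 further: cells exposed to compound for about 90 hours before reading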
[7] = biological target: T1, NAD-dependent protein deacylase sirtuin-5, mitochondrial (Homo sapiens, UniProt Q9NXA8); test: SIRT5 desuccinylase inhibitors, dose response, biochemical, fluorescence imaging, cherry-pick, set 5 (AID 720591);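 further: desuccinylation of succinyl peptide AMC substrate read as fluorescence after trypsin release; potency of inhibitors that lower fluorescence and may act on trypsin instead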
T1 sequence (Q9NXA8 whole entry): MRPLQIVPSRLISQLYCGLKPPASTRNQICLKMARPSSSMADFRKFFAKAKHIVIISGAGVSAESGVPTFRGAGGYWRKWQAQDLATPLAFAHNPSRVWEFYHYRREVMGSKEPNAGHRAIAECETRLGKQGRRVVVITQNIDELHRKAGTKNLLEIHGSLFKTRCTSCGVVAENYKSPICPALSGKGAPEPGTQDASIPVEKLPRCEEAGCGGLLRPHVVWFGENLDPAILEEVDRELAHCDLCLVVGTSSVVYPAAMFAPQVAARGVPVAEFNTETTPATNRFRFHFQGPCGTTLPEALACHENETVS

Kallikrein-7 = Kallikrein-7 (Homo sapiens, UniProt P49862); test: Fluorescence Intensity-based biochemical primary high throughput dose response assay to identify activators of kallikrein-7 (K7) zymogen.
Chain of Kallikrein-7 (P49862 whole entry): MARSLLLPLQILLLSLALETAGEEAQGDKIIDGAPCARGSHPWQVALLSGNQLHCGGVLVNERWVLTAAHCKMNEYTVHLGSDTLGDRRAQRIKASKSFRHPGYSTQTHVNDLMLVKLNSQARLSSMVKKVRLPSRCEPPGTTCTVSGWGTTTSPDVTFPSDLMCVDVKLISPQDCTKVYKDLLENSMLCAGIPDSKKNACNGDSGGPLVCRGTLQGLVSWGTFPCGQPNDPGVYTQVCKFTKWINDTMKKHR

Caspase-7 = Caspase-7 (Homo sapiens, UniProt P55210); test: human caspase-7 inhibitors, dose response, selectivity assay for caspase-6 inhibitor project, biochemical, DEVD-R110 fluorescence, cherry-pick (AID 743295)
Chain of Caspase-7 (P55210 24-198 limits assumed): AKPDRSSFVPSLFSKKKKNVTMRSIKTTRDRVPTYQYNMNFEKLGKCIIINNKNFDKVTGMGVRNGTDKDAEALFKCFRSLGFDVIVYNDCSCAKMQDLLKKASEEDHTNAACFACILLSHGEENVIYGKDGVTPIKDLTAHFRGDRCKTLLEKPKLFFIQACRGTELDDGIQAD
Chain of Caspase-7 (P55210 207-303 limits assumed): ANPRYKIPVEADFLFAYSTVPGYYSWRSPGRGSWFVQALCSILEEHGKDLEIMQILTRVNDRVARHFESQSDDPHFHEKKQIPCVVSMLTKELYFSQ

Caspase-6 = Caspase-6 (Homo sapiens, UniProt P55212); test: human caspase-6 inhibitors, dose response, biochemical, VEID-R110 fluorescence, cherry-pick (AID 720632)
Chain of Caspase-6 (P55212 24-179 limits assumed): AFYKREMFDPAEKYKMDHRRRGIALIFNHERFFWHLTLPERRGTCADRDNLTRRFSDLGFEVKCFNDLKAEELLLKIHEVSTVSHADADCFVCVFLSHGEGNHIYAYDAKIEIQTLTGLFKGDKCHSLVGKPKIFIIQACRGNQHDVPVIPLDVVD
Chain of Caspase-6 (P55212 194-293 limits assumed): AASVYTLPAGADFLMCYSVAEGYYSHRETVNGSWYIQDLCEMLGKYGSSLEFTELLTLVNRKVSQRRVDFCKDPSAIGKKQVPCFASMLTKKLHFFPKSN

[8] = biological target: T2, Histone-lysine N-methyltransferase NSD2 (Homo sapiens, UniProt O96028); type: biochemical
T2 sequence (O96028 whole entry): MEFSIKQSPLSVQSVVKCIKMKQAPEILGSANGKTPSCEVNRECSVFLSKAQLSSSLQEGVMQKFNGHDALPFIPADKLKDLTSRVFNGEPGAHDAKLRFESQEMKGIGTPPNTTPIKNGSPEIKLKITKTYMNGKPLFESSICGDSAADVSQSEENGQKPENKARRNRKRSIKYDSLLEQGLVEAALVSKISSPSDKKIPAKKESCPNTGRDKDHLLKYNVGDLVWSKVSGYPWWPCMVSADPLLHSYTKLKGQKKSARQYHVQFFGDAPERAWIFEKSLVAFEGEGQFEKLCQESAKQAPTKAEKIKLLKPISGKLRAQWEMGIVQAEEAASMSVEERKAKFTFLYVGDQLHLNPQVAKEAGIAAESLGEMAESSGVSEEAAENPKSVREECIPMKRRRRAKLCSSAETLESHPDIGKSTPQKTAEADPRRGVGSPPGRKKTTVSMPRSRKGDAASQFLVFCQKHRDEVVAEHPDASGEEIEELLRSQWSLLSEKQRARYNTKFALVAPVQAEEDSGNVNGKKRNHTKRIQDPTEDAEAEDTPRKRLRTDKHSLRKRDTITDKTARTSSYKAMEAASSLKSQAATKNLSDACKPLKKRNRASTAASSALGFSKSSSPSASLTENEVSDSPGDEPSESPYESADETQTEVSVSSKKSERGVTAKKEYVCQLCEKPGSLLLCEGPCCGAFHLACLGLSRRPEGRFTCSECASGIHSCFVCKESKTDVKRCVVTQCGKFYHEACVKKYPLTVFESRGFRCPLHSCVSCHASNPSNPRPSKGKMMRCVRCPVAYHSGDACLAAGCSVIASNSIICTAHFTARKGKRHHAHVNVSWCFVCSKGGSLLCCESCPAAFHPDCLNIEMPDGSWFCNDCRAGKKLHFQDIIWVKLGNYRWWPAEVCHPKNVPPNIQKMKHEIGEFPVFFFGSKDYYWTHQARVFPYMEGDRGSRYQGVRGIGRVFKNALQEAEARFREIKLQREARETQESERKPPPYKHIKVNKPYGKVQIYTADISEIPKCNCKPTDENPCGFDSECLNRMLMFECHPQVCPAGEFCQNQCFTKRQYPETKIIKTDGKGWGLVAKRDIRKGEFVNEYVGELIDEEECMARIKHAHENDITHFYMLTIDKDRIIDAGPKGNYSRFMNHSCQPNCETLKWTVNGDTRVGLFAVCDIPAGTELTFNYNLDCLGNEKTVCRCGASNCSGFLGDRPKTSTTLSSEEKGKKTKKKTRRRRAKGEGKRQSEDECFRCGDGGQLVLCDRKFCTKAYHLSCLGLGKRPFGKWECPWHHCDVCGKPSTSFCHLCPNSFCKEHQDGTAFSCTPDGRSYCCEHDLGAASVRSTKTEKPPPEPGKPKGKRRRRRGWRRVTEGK

Protein skinhead-1 = biological target: T3, Protein skinhead-1 (Caenorhabditis elegans, UniProt P34707); type: functional
T3 sequence (P34707 whole entry): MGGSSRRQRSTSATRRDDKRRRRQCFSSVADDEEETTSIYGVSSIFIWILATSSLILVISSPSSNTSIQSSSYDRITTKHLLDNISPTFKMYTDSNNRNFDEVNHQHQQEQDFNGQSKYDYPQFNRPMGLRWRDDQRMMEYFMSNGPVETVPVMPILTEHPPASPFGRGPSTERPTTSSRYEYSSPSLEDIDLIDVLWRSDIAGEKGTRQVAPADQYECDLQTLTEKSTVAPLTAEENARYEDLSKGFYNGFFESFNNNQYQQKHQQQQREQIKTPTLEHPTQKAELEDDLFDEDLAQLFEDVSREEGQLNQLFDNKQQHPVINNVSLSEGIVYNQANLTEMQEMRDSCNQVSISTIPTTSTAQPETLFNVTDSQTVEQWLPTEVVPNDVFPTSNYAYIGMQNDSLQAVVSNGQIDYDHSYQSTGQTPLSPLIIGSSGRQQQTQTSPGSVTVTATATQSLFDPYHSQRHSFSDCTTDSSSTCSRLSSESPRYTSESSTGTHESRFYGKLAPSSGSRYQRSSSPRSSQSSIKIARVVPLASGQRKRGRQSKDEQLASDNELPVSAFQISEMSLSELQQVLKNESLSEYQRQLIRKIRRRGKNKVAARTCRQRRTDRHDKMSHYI

[9] = biological target: T4, DNA repair protein RAD52 homolog (Homo sapiens, UniProt P43351); type: functional, biochemical
T4 sequence (P43351 whole entry): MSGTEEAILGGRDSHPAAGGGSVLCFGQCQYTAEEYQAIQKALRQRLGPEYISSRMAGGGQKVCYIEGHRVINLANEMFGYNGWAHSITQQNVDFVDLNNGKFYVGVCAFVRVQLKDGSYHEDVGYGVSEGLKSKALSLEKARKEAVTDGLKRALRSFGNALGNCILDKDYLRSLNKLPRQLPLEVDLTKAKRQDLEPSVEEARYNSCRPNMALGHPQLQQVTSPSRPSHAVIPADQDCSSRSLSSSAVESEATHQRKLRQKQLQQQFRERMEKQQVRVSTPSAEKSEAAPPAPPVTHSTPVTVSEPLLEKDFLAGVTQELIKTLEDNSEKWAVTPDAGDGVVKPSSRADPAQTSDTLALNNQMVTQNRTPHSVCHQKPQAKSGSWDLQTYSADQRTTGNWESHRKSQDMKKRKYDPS

[10] = NIH:OVCAR-3 ovarian cancer cell cytotoxicity, dose response, PAX8 inhibitor project, plate reader, dry powder samples (AID 743044); type: functional, cell-based
[11] = IGROV1 ovarian cancer cell cytotoxicity, dose response, PAX8 inhibitor project, plate reader, dry powder samples (AID 743043); type: functional, cell-based; details: IGROV-1
Paired box protein Pax-8 = Paired box protein Pax-8 (Homo sapiens, UniProt Q06710); test: inhibitors of PAX8-driven TPO luciferase reporter, dose response, RMG-I cells, cherry-pick (AID 687027); type: functional, cell-based;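 further: luciferase reporter driven by Pax8 target thyroperoxidase promoter measured by SteadyGlo luminescence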
Chain of Paired box protein Pax-8 (Q06710 whole entry): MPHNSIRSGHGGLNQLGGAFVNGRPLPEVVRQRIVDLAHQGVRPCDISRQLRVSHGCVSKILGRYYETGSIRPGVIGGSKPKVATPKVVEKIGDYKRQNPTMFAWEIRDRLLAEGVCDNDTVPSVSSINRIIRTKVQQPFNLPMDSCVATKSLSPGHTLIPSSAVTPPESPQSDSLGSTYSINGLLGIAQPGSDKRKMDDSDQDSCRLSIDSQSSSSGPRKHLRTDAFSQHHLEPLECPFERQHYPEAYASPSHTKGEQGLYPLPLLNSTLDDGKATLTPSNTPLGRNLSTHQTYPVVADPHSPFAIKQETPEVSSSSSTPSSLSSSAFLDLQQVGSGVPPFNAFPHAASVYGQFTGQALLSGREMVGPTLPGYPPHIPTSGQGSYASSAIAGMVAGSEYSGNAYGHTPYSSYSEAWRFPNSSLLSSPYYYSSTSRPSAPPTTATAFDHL

[12] = A2780 ovarian cancer cell cytotoxicity, dose response, cytotoxicity control, plate reader, dry powder samples (AID 743046); type: functional, cell-based
[13] = non-specific cell cytotoxicity, dose response, cytotoxicity control for PAX8 inhibitor project, plate reader, dry powder samples (AID 743021); type: functional, cell-based
[14] = cytotoxicity in OVCAR8 ovarian cancer cells, dose response, PAX8 project, cell-based, plate reader, dry powder samples (AID 743197); type: functional; details: OVCAR-8
[15] = biological target: T1, NAD-dependent protein deacylase sirtuin-5, mitochondrial; test: SIRT5 deacylase inhibitors, dose response, biochemical, fluorescence imaging, cherry-pick, set 6 (AID 720597)
[16] = TRPM1 promoter luciferase reporter signal decrease, dose response, MITF inhibitor project, cell-based, SK-MEL-5, dry powder, set 9 (AID 651588); type: functional
[17] = SK-MEL-5 parental cell viability reduction, dose response, orthogonal assay for MITF inhibitor project, CellTiter-Glo luminescence, dry powder, set 8 (AID 651586); type: functional, cell-based
[18] = MITF Orthogonal Assay: SK-MEL-5 CTG Assay Measured in Cell-Based System Using Plate Reader - 2084-02_Inhibitor_Dose_DryPowder_Activity_Set5.; type: functional
[19] = A375 melanoma cell viability loss, dose response, counter-screen for MITF inhibitor project, CellTiter-Glo luminescence, dry powder, set 4 (AID 624364); type: functional, cell-based; details: A-375;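 further: A375 melanoma cells are MITF independent so this is a counter screen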
[20] = MITF Measured in Cell-Based System Using Plate Reader - 2084-01_Inhibitor_Dose_DryPowder_Activity_Set7.; type: functional
[21] = MITF Measured in Cell-Based System Using Plate Reader - 2084-01_Inhibitor_Dose_DryPowder_Activity_Set6.; type: functional
[22] = Late stage results for the probe development effort to identify inhibitors of Plasmodium falciparum gametocytes: Luminescence-based cell-based high throughput dose response assay to identify inhibitors of viability of late stage Plasmodium falciparum gametocytes.; type: functional
[23] = P. falciparum Dd2 blood-stage growth inhibition, dose response, SYBR Green fluorescence, erythrocytes, dry powder, set 2 (AID 1159574); type: functional, cell-based
[24] = P. falciparum Dd2 growth inhibitors, dose response, SYBR Green, cherry-picked samples (AID 1159567); type: functional, cell-based
[25] = P. falciparum Dd2 growth inhibitors, dose response, SYBR Green, dry powder samples (AID 1159566); type: functional, cell-based;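 further: potency for growth inhibition with lower SYBR green DNA signal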
[26] = P. falciparum 3D7-ScDHODH growth inhibitors, dose response, SYBR Green, dry powder samples (AID 1159570); type: functional, cell-based;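 further: parasite growth measured after 72 hours of compound exposure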
[27] = P. falciparum ATP4 D1247Y mutant growth inhibitors, dose response, NITD609-resistant line, SYBR Green, dry powder (AID 1159571); type: functional, cell-based;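 further: parasites synchronized at ring stage by sorbitol before testing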
[28] = HepG2 cell cytotoxicity, dose response, cytotoxicity control, plate reader, dry powder samples (AID 1159569); type: functional, cell-based;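 further: inhibitor potency with signal falling toward the positive control level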
[29] = HepG2 cell cytotoxicity, dose response, cytotoxicity control, cherry-picked samples (AID 1159577); type: functional, cell-based
[30] = Dose-response inhibition of insulin secretion in a rat insulinoma line at 5 mM glucose (AID 1117331); type: functional, cell-based; details: INS-1E
[31] = half-maximal inhibitory concentration for glucagon-like peptide-1 release, STC-1 cell line, dose-response (AID 1117345); type: functional, cell-based
[32] = Glucagon-like peptide 1 release potency, NCI-H716 cell line, dose-response, half-maximal inhibitory concentration (AID 1117344); type: functional, cell-based

## Nc1c(C(=O)NC2CCCC2)c2nc3ccccc3nc2n1CC1CCCO1 (stereo not drawn)
[1]
  IC50: > 20 µM (inactive)
[2]
  EC50: 14.4 µM (active)
[3]
  EC50: 13.2 µM (active)
[4]
  IC50: 21.1 µM (inactive)

## CN1CCN(C(=O)COc2ccc(N(C)S(=O)(=O)c3ccc(F)cc3)cc2)CC1
[5]
  EC50: 0.346 µM (active)
[6]
  EC50: > 60 µM (not active)
[7]
  AC50: > 30 µM (inactive)

## Fc1ccc(-c2nc3cnccn3c2NC2CCCC2)cc1
Kallikrein-7
  EC50: > 7.72 µM (active)

## COc1cc(NCCCCC(C)N)c2nccc(C)c2c1 (stereo not drawn)
Caspase-7
  AC50: 24.9 µM (active)
Caspase-6
  AC50: 4.77 µM (active)
[8]
  AC50: 2.52 µM (active)
Protein skinhead-1
  IC50: > 100 µM (inactive)
[9]
  AC50: 5.43 µM (active)

## C[C@H](CO)N1C[C@H](C)[C@H](CN(C)Cc2ccc(C(F)(F)F)cc2)OCCCC[C@H](C)Oc2ccc(NC(=O)Cc3ccccc3)cc2C1=O
[10]
  AC50: 35.4 µM (active)
[11]
  AC50: 25.6 µM (active)
Paired box protein Pax-8
  AC50: 6.42 µM (active)
[12]
  AC50: 49 µM (active)
[13]
  AC50: 69.3 µM (active)
[14]
  AC50: 67 µM (active)

## COCC(=O)Nc1ccc2c(c1)OC[C@@H](C)N(CCc1ccccc1)C[C@@H](C)[C@H](OC)CN(C)C2=O
[15]
  AC50: > 30 µM (inactive)

## NC1=C(NS(=O)(=O)c2ccc(Br)s2)C(=O)c2ccccc2C1=O
[16]
  AC50: > 70 µM (inactive)
[17]
  AC50: > 70 µM (inactive)
[18]
  AC50: > 70 µM (inactive)
[19]
  AC50: > 70 µM (inactive)
[20]
  AC50: 65.8 µM (active)
[21]
  AC50: > 70 µM (inactive)

## Cc1ccc(-c2nn(-c3ccccc3)cc2C(=O)Nc2nccs2)cc1
[22]
  IC50: > 74.4 µM (inactive)

## COc1cccc(C#Cc2ccc([C@@H]3[C@H](CO)N4C(=O)CN(C(=O)Cc5ccccc5)C[C@@H]34)cc2)c1
[23]
  AC50: > 20 µM (inactive)

## C[C@@H]1CN([C@H](C)CO)S(=O)(=O)c2ccc(-c3ccncc3)cc2O[C@H]1CN(C)Cc1ccc(Oc2ccccc2)cc1
[24]
  AC50: 1.51 µM (active)
[25]
  AC50: 0.583 µM (active)
[26]
  AC50: 0.573 µM (active)
[27]
  AC50: 0.841 µM (active)
[28]
  AC50: 50 µM (active)

## Cc1cccc(S(=O)(=O)N2CCCCN3[C@@H](CO)[C@@H](c4ccc(-c5ccccc5)cc4)[C@@H]3C2)c1
[24]
  AC50: 1.26 µM (active)
[29]
  AC50: 19.8 µM (active)

## Cn1cc([S+](C)[O-])c(=O)c2ccc(F)cc21 (stereo not drawn) [FLOSEQUINAN]
[30]
  IC50: > 33.3 µM (inactive)
[31]
  IC50: > 40 µM (inactive)
[32]
  IC50: > 40 µM (inactive)
